Data taken from article PMC5391125, “Fatty acid DSF binds and allosterically activates histidine kinase RpfC of phytopathogenic bacterium Xanthomonas campestris pv. campestris to regulate quorum-sensing and virulence” (PLoS Pathogens, 2017).

Experiments:
RpfC^FL liposome [1] = biological target: T1, RpfC^FL liposome (Xanthomonas campestris pv. campestris, UniProt P0C0F7); test: Thermal shift assay (differential scanning fluorimetry), RpfC^FL liposome; format: binding
T1 construct: His6 (C); made in house; host or cells: E. coli BL21(DE3), pET30a
Procedure: (§1) DSF was mixed with purified proteins or liposomes of RpfC to a final concentration of 0 μM, 5 μM or 10 μM respectively in the reaction buffer (50 mM Tris-HCl pH 7.8, 25 mM NaCl, 100 mM KCl). The protein concentration was 0.5–1 μg/μl. The TSA was performed by a Prometheus NT.48 nanoDSF device with a temperature gradient of 20–95°C, 1°C /min. Unfolding transition points were determined according to the changes of intrinsic tryptophan fluorescence at 330 nm, 350 nm. The ratio of fluorescence and the melting temperature (Tm) were calculated by the NT Melting Control software (NanoTemper Technologies).

RpfC^Δsensor liposome [2] = biological target: T2, RpfC^Δsensor liposome (Xanthomonas campestris pv. campestris, UniProt P0C0F7); test: Thermal shift assay, RpfC^Δsensor liposome; format: binding
T2 construct: His6 (C); made in house; host or cells: E. coli BL21(DE3), pET30a
Procedure: as §1

RpfC^S18T liposome = biological target: T3, RpfC^S18T liposome (Xanthomonas campestris pv. campestris, UniProt P0C0F7, S18T); test: Autokinase assay, RpfC^S18T liposome; format: biochemical; conditions: 0.75 μM DSF, 5 min; increase slightly lower than WT RpfC
T3 construct: His6 (C); made in house; host or cells: E. coli BL21(DE3), pET30a
Procedure: (§2) in vitro phosphorylation assay was conducted as described in our previous study. For autophosphoylation, RpfC liposomes or IMV were incubated with 100 μM ATP containing 10 μCi [γ-^32P]ATP (PerkinElmer, USA) in autophosphorylation buffer (50 mM Tris-HCl, pH 7.8, 2 mM DTT, 25 mM NaCl, 25 mM KCl, 5 mM MgCl2) for indicated time (28°C). If necessary, DSF was added into the mixture 20 min before addition of ATP. The reaction was stopped with 6 × SDS-PAGE loading buffer. The phosphorylated proteins were separated by 12% SDS-PAGE. After SDS-PAGE electrophoresis, gels were separated from back glass plate and placed in a Ziploc bag and exposed to a phosphor screen for 1 hour. The screen was scanned with a PhosphorImage system (Amersham Biosciences, USA) at […]. If necessary, signal intensity was measured by Quantity One software (Bio-Rad).

soluble RpfC^Δinput = biological target: T4, soluble RpfC^Δinput (Xanthomonas campestris pv. campestris, UniProt P0C0F7); test: Thermal shift assay, soluble RpfC^Δinput; format: binding
T4 construct: a truncated, soluble RpfC protein (RpfC^Δinput) lacking the N-terminal input region (including sensor and TM domains) was obtained and purified; His6 (C); made in house; host or cells: E. coli BL21(DE3), pET30a
Procedure: as §1

RpfC^FL liposome [3] = biological target: T1, RpfC^FL liposome; test: In vitro autokinase (phosphorylation) assay, RpfC^FL liposome; format: biochemical; conditions: 10 μM DSF
Procedure: as §2

RpfC^Q22A liposome [4] = biological target: T5, RpfC^Q22A liposome (Xanthomonas campestris pv. campestris, UniProt P0C0F7, Q22A); test: MST binding, RpfC^Q22A liposome
T5 construct: His6 (C); made in house; host or cells: E. coli BL21(DE3), pET30a
Procedure: (§3) Binding reactions of RpfC to DSF was measured by microscale thermophoresis in a Monolith NT.Label Free (Nano Temper Technologies GMBH, Germany) instrument which detects changes in size, charge and conformation induced by binding. RpfC liposomes were collected with centrifugation of 200,000 g for 40 min and resuspended in MST buffer (50 mM Tris-HCl pH 7.8, 150 mM NaCl, 10 mM MgCl2, 0.05% Tween-20) to an approximate concentration of 0.1 μM. A range of concentration of DSF (range from 0.06 μM to 2 mM) in assay buffer (50 mM Tris-HCl pH 7.8, 150 mM NaCl, 10 mM MgCl2, 0.05% Tween-20, 5% methanol) was incubated with RpfC liposomes (1:1, v/v) for 10 minutes. The sample was loaded into the NT.Label Free standard capillaries and measured with 20% LED power and 40% MST power. Purified sensor protein was dissolved in reaction buffer (50 mM Tris-HCl pH 8.5, 150 mM NaCl, 0.1% Tween-20) to a final concentration as 8 μM. Dilute DSF from 0.0122 μM to 25 μM in buffer (50 mM Tris-HCl pH 8.5, 150 mM NaCl, 0.25‰ methanol). Different concentrations of DSF and sensor protein (1:1, v/v) were mixed and loaded into NT.Label Free standard capillaries. […]
(§4) Supplementary file ppat.1006304.s004.pdf: S4 Fig Substitution of essential amino acid impact DSF-RpfC interaction. Microscale thermophoresis (MST) was used to quantify the binding affinity between DSF and RpfC derivates. […]

RpfC^S18A liposome = biological target: T6, RpfC^S18A liposome (Xanthomonas campestris pv. campestris, UniProt P0C0F7, S18A); test: MST binding, RpfC^S18A liposome
T6 construct: His6 (C); made in house; host or cells: E. coli BL21(DE3), pET30a
Procedure: as §3, §4

RpfS = biological target: RpfS; set-up: method as in PMID 24617591, PMID 23815566; conditions: by ITC; read-out: binding affinity (Kd) DSF-RpfS; cited from earlier work
RpfC^Δsensor liposome [5] = biological target: T2, RpfC^Δsensor liposome; test: MST binding, RpfC^Δsensor liposome
Procedure: Binding reactions of RpfC to DSF was measured by microscale thermophoresis in a Monolith NT.Label Free (Nano Temper Technologies GMBH, Germany) instrument which detects changes in size, charge and conformation induced by binding. RpfC liposomes were collected with centrifugation of 200,000 g for 40 min and resuspended in MST buffer (50 mM Tris-HCl pH 7.8, 150 mM NaCl, 10 mM MgCl2, 0.05% Tween-20) to an approximate concentration of 0.1 μM. A range of concentration of DSF (range from 0.06 μM to 2 mM) in assay buffer (50 mM Tris-HCl pH 7.8, 150 mM NaCl, 10 mM MgCl2, 0.05% Tween-20, 5% methanol) was incubated with RpfC liposomes (1:1, v/v) for 10 minutes. The sample was loaded into the NT.Label Free standard capillaries and measured with 20% LED power and 40% MST power. Purified sensor protein was dissolved in reaction buffer (50 mM Tris-HCl pH 8.5, 150 mM NaCl, 0.1% Tween-20) to a final concentration as 8 μM. Dilute DSF from 0.0122 μM to 25 μM in buffer (50 mM Tris-HCl pH 8.5, 150 mM NaCl, 0.25‰ methanol). Different concentrations of DSF and sensor protein (1:1, v/v) were mixed and loaded into NT.Label Free standard capillaries. The label free MST assay was performed with 20% LED power and 40% MST power. KD Fit function of the Nano Temper Analysis Software Version 1.5.41 was used to fit curve and calculate the value of dissociation constant (Kd).

RpfC^Q22A liposome [6] = biological target: T5, RpfC^Q22A liposome; test: Autokinase assay, RpfC^Q22A liposome; format: biochemical; conditions: 0.75 μM DSF, 5 min
Procedure: as §2

RpfC^S3A liposome = biological target: T7, RpfC^S3A liposome (Xanthomonas campestris pv. campestris, UniProt P0C0F7, S3A); test: Autokinase assay, RpfC^S3A liposome; format: biochemical; conditions: 0.75 μM DSF, 5 min
T7 construct: His6 (C); made in house; host or cells: E. coli BL21(DE3), pET30a
Procedure: as §2

RpfC sensor peptide = biological target: T8, RpfC sensor peptide (Xanthomonas campestris pv. campestris, UniProt P0C0F7); test: Circular dichroism of RpfC sensor peptide; conditions: sensor 60 μM; DSF 0, 100, 500 μM
T8 construct: GST (N, cleaved yes); made in house; host or cells: E. coli BL21 (DE3), pGEX6P-1
Procedure: To determine if DSF has impact on RpfC sensor conformation change, CD analysis was carried out on a Chirascan CD Spectrometer (Applied Photophysics, UK), with 10 mm pathlength and 1 nm bandwidth. Sensor protein with GST tag cleaved off was dissolved in buffer (50 mM Tris-HCl pH 8.5, 150 mM NaCl) to 60 μM. Dilute DSF with Sensor protein to a series of concentration (0 μM, 100 μM and 500 μM). CD wavelength scans were collected between 200 nm-260 nm. The spectra data were analyzed on the http://dichroweb.cryst.bbk.ac.uk website with Contin-LL method.

Structure (SMILES): CC(C)CCCCCCC/C=C\C(=O)O [DSF, cis-11-methyl-dodecenoic acid]
- melting temperature (Tm) (RpfC^FL liposome [1]; 5 μM DSF vs. 10 μM RpfC): 64.27 °C
- melting temperature (Tm) (RpfC^FL liposome [1]; 10 μM DSF vs. 10 μM RpfC): 66.27 °C
- thermal shift after DSF stimulation (RpfC^Δsensor liposome [2]): no thermal shift was detected
- autophosphorylation level under DSF stimulation (RpfC^S18T liposome): increased
- thermal shift after DSF stimulation (soluble RpfC^Δinput): no thermal shift was detected
- level of RpfC^FL-P phosphorylation compared with the control (RpfC^FL liposome [3]): approximately doubled
- time of increase in phosphorylation level post DSF addition (RpfC^FL liposome [3]): 2 min
- binding between DSF and RpfC liposome (RpfC^Q22A liposome [4]): completely eliminated the binding
- binding between DSF and RpfC liposome (RpfC^S18A liposome): completely eliminated the binding
- Kd (RpfS): 1400 nM
- binding to DSF (RpfC^Δsensor liposome [5]): didn’t bind
- RpfC-P levels under DSF treatment (RpfC^Q22A liposome [6]): significant decrease
- RpfC-P level under DSF stimulation (RpfC^S3A liposome): remarkably increased
- ratio of strand in secondary structure (RpfC sensor peptide): gradually elevated
